This is an account of results in ChEMBL document CHEMBL1125980, “Structural homologies among thromboxane (TXA2) receptor antagonists: Minimal pharmacophoric requirements for high affinity interaction with TXA2 receptors” (Bioorg Med Chem Lett, 1991).

pIC50, pKd: −log10 of the molar value.

For the first assay, the species on record is Homo sapiens. The assay is described as follows: Tested for concentration required for antagonism of U-46,619-Induced Human Platelet Aggregation. It is filed as functional.
The compound `O=C(O)CCC/C=C\C[C@H]1CCC[C@@H]1NS(=O)(=O)c1ccccc1` had a pIC50 of 6.82.

`O=C(O)CCC/C=C\CC1C2CCC(C2)C1NS(=O)(=O)c1ccccc1` (stereo not given): the pIC50 is 7.49. This pIC50 is 0.67 log units higher than that of the compound before.

`O=C(O)CCC/C=C\C[C@H]1CCC[C@H]1NS(=O)(=O)c1ccccc1`: the pIC50 is 6.60.

`O=C(O)CCC/C=C/CCCNS(=O)(=O)c1ccccc1` gave a pIC50 of 6.00. Compared with the last compound, the pIC50 is 0.60 log units lower.

Regarding `O=C(O)CCCCCCCCNS(=O)(=O)c1ccccc1`, the pIC50 was 5.82.

The target in another assay is T1, Thromboxane A2 receptor (Homo sapiens, UniProt P21731).
T1 sequence (P21731 whole entry): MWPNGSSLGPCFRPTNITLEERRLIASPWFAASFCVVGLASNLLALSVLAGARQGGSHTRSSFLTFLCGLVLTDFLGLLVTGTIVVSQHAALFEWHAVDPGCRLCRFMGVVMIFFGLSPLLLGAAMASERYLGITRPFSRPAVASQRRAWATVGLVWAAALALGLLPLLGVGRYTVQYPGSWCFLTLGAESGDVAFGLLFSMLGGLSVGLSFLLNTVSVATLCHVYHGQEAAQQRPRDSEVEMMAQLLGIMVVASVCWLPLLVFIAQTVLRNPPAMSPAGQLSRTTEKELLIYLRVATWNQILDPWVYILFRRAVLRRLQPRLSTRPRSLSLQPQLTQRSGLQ
The assay is described as follows: Tested for binding affinity against platelet TXA2 receptor in washed human platelets using [125I]BOP as radioligand.
Take `O=C(O)CCC/C=C\C[C@H]1CCC[C@@H]1NS(=O)(=O)c1ccccc1`: the pKd was 8.12.

Compound `O=C(O)CCC/C=C\CC1C2CCC(C2)C1NS(=O)(=O)c1ccccc1` (stereo not given) gave a pKd of 8.54. Compared with the last compound, the pKd is 0.42 log units higher.

On to `O=C(O)CCC/C=C\C[C@H]1CCC[C@H]1NS(=O)(=O)c1ccccc1`, for which the pKd was 7.44.

The compound `O=C(O)CCC/C=C/CCCNS(=O)(=O)c1ccccc1` showed a pKd of 7.17.

In the case of `O=C(O)CCCCCCCCNS(=O)(=O)c1ccccc1`, the pKd was 6.76.
